Assay results from ChEMBL document CHEMBL1201862, “PubChem BioAssay data set” (2004).
Calls of active or inactive are those of the source.

Key:
Type in all cases: functional
[1] = SAR analysis of small molecule activators of Apaf-1 using a LZ-Caspase-9/Caspase-3 Fluorescent Selectivity assay - Set 2.; details: read-out: EC50_Mean
[2] = target: T1, Apoptotic protease-activating factor 1 (Homo sapiens, UniProt O14727); assay: SAR analysis of small molecule Activators of Apaf-1 in a Fluorescent assay - set 2.; details: read-out: EC50_Mean
T1 sequence (O14727 whole entry): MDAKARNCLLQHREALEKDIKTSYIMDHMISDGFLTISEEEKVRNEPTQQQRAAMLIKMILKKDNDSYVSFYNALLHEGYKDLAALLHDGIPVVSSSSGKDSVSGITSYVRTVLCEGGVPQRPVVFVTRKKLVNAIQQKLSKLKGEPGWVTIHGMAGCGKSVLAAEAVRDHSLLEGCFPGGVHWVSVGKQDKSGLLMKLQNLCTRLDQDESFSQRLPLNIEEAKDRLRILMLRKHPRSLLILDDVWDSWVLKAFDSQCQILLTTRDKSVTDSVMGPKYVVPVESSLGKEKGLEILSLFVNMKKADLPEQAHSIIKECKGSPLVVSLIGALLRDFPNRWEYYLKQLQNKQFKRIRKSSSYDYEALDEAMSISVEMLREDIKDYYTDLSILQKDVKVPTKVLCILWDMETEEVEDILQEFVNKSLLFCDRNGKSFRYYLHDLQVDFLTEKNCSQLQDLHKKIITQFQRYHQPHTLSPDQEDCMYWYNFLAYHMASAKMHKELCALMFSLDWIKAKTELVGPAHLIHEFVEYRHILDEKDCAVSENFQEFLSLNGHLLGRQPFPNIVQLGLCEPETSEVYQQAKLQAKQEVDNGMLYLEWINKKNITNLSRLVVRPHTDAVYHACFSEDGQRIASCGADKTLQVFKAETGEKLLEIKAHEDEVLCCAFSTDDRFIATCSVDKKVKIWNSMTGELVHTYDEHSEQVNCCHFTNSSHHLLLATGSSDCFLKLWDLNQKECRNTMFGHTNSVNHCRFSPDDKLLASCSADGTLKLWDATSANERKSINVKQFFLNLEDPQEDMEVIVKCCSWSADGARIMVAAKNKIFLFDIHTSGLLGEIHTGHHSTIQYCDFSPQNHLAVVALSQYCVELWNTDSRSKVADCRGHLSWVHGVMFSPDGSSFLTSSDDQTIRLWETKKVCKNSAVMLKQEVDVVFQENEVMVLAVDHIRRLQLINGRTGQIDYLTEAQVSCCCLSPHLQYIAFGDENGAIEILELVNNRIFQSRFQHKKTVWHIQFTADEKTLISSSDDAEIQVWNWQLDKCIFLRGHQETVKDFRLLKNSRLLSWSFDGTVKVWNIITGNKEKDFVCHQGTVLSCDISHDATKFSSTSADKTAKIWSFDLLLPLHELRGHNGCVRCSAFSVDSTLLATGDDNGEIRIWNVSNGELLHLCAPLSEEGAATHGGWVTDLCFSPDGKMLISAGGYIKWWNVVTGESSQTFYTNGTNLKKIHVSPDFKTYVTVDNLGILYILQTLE

[3] = target: T2, High affinity choline transporter 1 (Homo sapiens, UniProt Q9GZV3); assay: CHT inhibitors, dose response, cell-based, 5-point CRC, membrane potential dye (AID 504840)
T2 sequence (Q9GZV3 whole entry): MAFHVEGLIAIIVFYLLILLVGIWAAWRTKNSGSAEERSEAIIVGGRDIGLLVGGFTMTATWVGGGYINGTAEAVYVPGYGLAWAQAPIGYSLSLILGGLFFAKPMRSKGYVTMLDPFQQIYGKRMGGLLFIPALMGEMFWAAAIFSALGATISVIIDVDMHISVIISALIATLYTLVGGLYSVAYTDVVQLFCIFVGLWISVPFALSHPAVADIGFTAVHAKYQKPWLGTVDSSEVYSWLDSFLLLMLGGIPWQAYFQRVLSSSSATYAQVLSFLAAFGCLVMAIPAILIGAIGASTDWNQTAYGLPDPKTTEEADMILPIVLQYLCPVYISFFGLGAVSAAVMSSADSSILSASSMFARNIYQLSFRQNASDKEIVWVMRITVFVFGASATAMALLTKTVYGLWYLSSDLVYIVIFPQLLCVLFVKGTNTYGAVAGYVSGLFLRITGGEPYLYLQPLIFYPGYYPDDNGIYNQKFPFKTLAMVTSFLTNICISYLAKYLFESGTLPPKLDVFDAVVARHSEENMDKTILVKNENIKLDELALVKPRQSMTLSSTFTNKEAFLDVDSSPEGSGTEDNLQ

[4] = target: T2, High affinity choline transporter 1; assay: CHT inhibitors, dose response, cell-based, 10-point CRC, membrane potential dye (AID 588401);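 note: membrane potential dye fluorescence of choline-evoked depolarization via CHT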
[5] = target: T3, DNA dC->dU-editing enzyme APOBEC-3A (Homo sapiens, UniProt P31941); assay: Dose Response confirmation of small molecule APOBEC3A DNA Deaminase Inhibitors via a fluorescence-based single-stranded DNA deaminase assay. [Related pubchem assays (depositor defined):AID493011, AID493024]
T3 sequence (P31941 whole entry): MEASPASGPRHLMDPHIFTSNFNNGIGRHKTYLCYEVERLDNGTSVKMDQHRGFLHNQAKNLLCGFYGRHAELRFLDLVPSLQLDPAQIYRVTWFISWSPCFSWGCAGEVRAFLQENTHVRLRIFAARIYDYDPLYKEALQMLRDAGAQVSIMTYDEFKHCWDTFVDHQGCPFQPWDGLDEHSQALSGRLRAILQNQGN

[6] = target: T4, DNA dC->dU-editing enzyme APOBEC-3G (Homo sapiens, UniProt Q9HC16)
T4 sequence (Q9HC16 whole entry): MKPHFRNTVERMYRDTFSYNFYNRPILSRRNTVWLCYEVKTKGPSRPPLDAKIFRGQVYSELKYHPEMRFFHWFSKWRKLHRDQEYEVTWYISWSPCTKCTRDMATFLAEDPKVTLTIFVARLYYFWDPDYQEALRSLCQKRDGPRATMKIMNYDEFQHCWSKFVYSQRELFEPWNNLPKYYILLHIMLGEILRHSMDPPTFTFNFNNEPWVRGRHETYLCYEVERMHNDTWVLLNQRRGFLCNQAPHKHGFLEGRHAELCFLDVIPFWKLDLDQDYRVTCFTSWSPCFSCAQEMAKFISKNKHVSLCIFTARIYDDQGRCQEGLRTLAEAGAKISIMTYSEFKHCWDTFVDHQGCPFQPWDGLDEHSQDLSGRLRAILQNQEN

[7] = target: T3, DNA dC->dU-editing enzyme APOBEC-3A; assay: SAR analysis of small molecule inhibitors of APOBEC3A DNA Deaminase via a fluorescence-based single-stranded DNA deaminase assay - Set 2.; details: read-out: IC50_Mean
[8] = target: T4, DNA dC->dU-editing enzyme APOBEC-3G; assay: SAR analysis of small molecule inhibitors of APOBEC3G DNA Deaminase via a fluorescence-based single-stranded DNA deaminase assay - Set 2.; details: read-out: IC50_Mean
[9] = target: T4, DNA dC->dU-editing enzyme APOBEC-3G; assay: APOBEC3G deaminase inhibitors, SAR follow-up, biochemical, fluorescence, single-stranded DNA substrate (AID 602136); details: read-out: IC50_Mean
[10] = target: T3, DNA dC->dU-editing enzyme APOBEC-3A; assay: SAR analysis of small molecule inhibitors of APOBEC3A DNA Deaminase via a fluorescence-based single-stranded DNA deaminase assay.; details: read-out: IC50_Mean
[11] = target: T5, Neuropeptides B/W receptor type 1 (Homo sapiens, UniProt P48145); assay: GPR7 antagonist potency, late-stage follow-up, cell-based, fluorescence, dose response, set 5 (AID 588566)
T5 sequence (P48145 whole entry): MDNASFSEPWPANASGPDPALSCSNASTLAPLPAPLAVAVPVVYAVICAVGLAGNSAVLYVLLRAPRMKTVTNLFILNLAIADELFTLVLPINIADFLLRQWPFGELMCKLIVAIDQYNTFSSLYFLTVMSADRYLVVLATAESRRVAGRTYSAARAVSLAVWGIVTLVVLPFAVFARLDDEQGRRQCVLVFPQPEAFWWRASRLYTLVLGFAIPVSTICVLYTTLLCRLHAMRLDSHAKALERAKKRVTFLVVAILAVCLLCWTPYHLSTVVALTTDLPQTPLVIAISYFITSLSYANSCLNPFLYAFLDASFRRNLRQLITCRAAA

[12] = target: Melanin-concentrating hormone receptor 1 (Homo sapiens, UniProt Q99705); assay: Late-stage fluorescence-based counterscreen for antagonists of the G-protein coupled receptor 7 (GPR7): cell-based dose response assay to identify antagonists of the melanin-concentrating hormone receptor 1 (MCHR1) Set 5.
Chain of Melanin-concentrating hormone receptor 1 (Q99705 whole entry): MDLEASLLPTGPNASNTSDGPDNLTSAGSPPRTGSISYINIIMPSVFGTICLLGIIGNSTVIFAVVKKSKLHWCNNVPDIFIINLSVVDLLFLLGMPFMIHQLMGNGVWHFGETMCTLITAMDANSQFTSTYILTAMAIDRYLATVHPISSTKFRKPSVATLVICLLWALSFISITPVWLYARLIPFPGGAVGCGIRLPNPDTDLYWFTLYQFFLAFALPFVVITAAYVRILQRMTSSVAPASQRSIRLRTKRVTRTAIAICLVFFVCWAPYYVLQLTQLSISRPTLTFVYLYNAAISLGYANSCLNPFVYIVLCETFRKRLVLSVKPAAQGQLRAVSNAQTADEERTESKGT

With `CC(Cn1cnc2ccccc21)C(=O)O` (configuration not stated) the EC50 [1] was > 100 µM (inactive) and the EC50 [2] was 83.2 µM (active).
In the case of `CCOC(=O)c1cc(C(=O)NC(C)c2ccccc2)c(C)nc1O` (configuration not stated), the IC50 [3] is reported as 1.77 µM (active) and the IC50 [4] is reported as 0.447 µM (active).
For `C[n+]1cccc(C(=O)Nc2ccccc2)c1`, the IC50 [5] was 2.75 µM (active), the IC50 [6] was 6.95 µM (active) and the IC50 [7] was 28.6 µM (inactive). For the same compound, the IC50 [8] was 1.1 µM (active), the IC50 [9] was 5.96 µM (active) and the IC50 [10] was 12.8 µM (inactive).
For `Cc1cccc(C(C#N)c2c(Cl)cnn(Cc3cccc4ccccc34)c2=O)c1` (configuration not stated), the IC50 [11] was 0.379 µM (active) and the IC50 [12] was 18.8 µM (inactive).
